From PubChem BioAssay (NCI)
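The compound was tested at five concentrations on cells cultured in 96-well plates, with a 48-hour exposure period. At the GI50, growth is halved. TGI: concentration producing complete growth inhibition.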

Tests used:
Test in all cases: DTP human tumour cell line panel, 48 h
HOP-62 NSCLC = system: HOP-62 NSCLC
NCI-H23 lung = system: NCI-H23 lung
SN12C renal = system: SN12C renal
MALME-3M melanoma = system: MALME-3M melanoma
HL-60(TB) leukemia = system: HL-60(TB) leukemia
UO-31 renal = system: UO-31 renal
SK-OV-3 ovarian = system: SK-OV-3 ovarian
SF-295 CNS = system: SF-295 CNS
HCC-2998 colon = system: HCC-2998 colon
NCI-H522 lung = system: NCI-H522 lung

`O=c1cnn2c(n1)sc1ccc3ccccc3c12` gave a TGI (HOP-62 NSCLC) of over 100 µM, a TGI (NCI-H23 lung) of over 100 µM and a TGI (SN12C renal) of over 100 µM. The TGI (MALME-3M melanoma) was over 100 µM, the TGI (HL-60(TB) leukemia) was over 100 µM and the TGI (UO-31 renal) was over 100 µM. For the same molecule, the TGI (SK-OV-3 ovarian) was over 100 µM, the TGI (SF-295 CNS) was over 100 µM and the TGI (HCC-2998 colon) was over 100 µM.
In the case of `NC(=S)N/N=C1/C(=O)N(c2ccc(Cl)cc2Cl)C(=O)C(=O)C1c1nc2ccccc2s1` (stereo unspecified), the TGI (HOP-62 NSCLC) is reported as over 100 µM, the TGI (NCI-H23 lung) is reported as over 100 µM and the TGI (SN12C renal) is reported as over 100 µM. For the same molecule, the TGI (MALME-3M melanoma) was over 100 µM, the TGI (UO-31 renal) was over 100 µM and the TGI (SK-OV-3 ovarian) was over 100 µM. For the same molecule, the TGI (NCI-H522 lung) was over 100 µM, the TGI (SF-295 CNS) was over 100 µM and the TGI (HCC-2998 colon) was over 100 µM.
`Nc1nc2nc[nH]c2c(=O)[nH]1` was tested, and the TGI (HOP-62 NSCLC) was over 100 µM, the TGI (NCI-H23 lung) was over 100 µM and the TGI (SN12C renal) was over 100 µM. The TGI (MALME-3M melanoma) was over 100 µM, the TGI (HL-60(TB) leukemia) was over 100 µM and the TGI (UO-31 renal) was over 100 µM. The TGI (SK-OV-3 ovarian) was over 100 µM, the TGI (NCI-H522 lung) was over 100 µM and the TGI (SF-295 CNS) was over 100 µM.
In the case of `c1ccc(CN(Cn2cccn2)Cn2cccn2)nc1`, the TGI (HOP-62 NSCLC) is reported as over 100 µM, the TGI (NCI-H23 lung) is reported as over 100 µM and the TGI (SN12C renal) is reported as over 100 µM. For the same molecule, the TGI (HL-60(TB) leukemia) was over 100 µM, the TGI (UO-31 renal) was over 100 µM and the TGI (SK-OV-3 ovarian) was over 100 µM. It also gave a TGI (NCI-H522 lung) of over 100 µM and a TGI (SF-295 CNS) of over 100 µM.
Molecule `CCOC(=O)c1sc(=S)c2c(C(=O)OCC)c(C(=O)OCC)sc2c1C(=O)OCC` has a GI50 (HOP-62 NSCLC) of 17.6 µM, a TGI (HOP-62 NSCLC) of 33.4 µM and a GI50 (NCI-H23 lung) of 17.4 µM. For the same molecule, the TGI (NCI-H23 lung) was 35.5 µM, the GI50 (SN12C renal) was 11.2 µM and the TGI (SN12C renal) was 26.7 µM. For the same molecule, the GI50 (UO-31 renal) was 15.1 µM, the TGI (UO-31 renal) was 30.9 µM and the GI50 (SK-OV-3 ovarian) was 43.3 µM. It also gave a TGI (SK-OV-3 ovarian) of over 100 µM, a GI50 (NCI-H522 lung) of 10.6 µM and a TGI (NCI-H522 lung) of 26.4 µM. The GI50 (SF-295 CNS) was 31.4 µM, the TGI (SF-295 CNS) was 94.8 µM and the GI50 (HCC-2998 colon) was 13.1 µM. It also gave a TGI (HCC-2998 colon) of 28.7 µM.
In the case of `Cc1cc(Cl)ccc1N=C1NC(=O)C(CC(=O)Nc2ccc(Cl)cc2Cl)S1` (stereo unspecified), the TGI (HOP-62 NSCLC) is reported as over 100 µM, the TGI (NCI-H23 lung) is reported as over 100 µM and the TGI (SN12C renal) is reported as over 100 µM. It also gave a TGI (MALME-3M melanoma) of over 100 µM, a TGI (UO-31 renal) of over 100 µM and a TGI (SK-OV-3 ovarian) of over 100 µM. It also gave a TGI (SF-295 CNS) of over 100 µM and a TGI (HCC-2998 colon) of over 100 µM.
`CC12CCC[C@@](C)(C(=O)OC3OC(CO)C(O)C(O)C3O)[C@H]1CCC13CC4CC(OC4(CO)[C@H]1O)[C@@H]23` (stereo partly specified) gave a TGI (HOP-62 NSCLC) of over 100 µM, a TGI (NCI-H23 lung) of over 100 µM and a TGI (SN12C renal) of over 100 µM. The TGI (MALME-3M melanoma) was over 100 µM, the TGI (UO-31 renal) was over 100 µM and the TGI (SK-OV-3 ovarian) was over 100 µM. The TGI (NCI-H522 lung) was over 100 µM, the TGI (SF-295 CNS) was over 100 µM and the TGI (HCC-2998 colon) was over 100 µM.
For `O=[N+]([O-])c1nccn1COCCF`, the TGI (HOP-62 NSCLC) was over 100 µM, the TGI (NCI-H23 lung) was over 100 µM and the TGI (SN12C renal) was over 100 µM. For the same molecule, the TGI (MALME-3M melanoma) was over 100 µM, the TGI (HL-60(TB) leukemia) was over 100 µM and the TGI (UO-31 renal) was over 100 µM. The TGI (SK-OV-3 ovarian) was over 100 µM, the TGI (NCI-H522 lung) was over 100 µM and the TGI (SF-295 CNS) was over 100 µM.
Work on `O=c1c2ccccc2c2nc3ccccc3nc2n1C1CCCCC1` yielded a TGI (NCI-H23 lung) of over 100 µM, a TGI (SN12C renal) of over 100 µM and a TGI (MALME-3M melanoma) of over 100 µM. The TGI (UO-31 renal) was over 100 µM, the TGI (SK-OV-3 ovarian) was over 100 µM and the TGI (NCI-H522 lung) was over 100 µM. For the same molecule, the TGI (SF-295 CNS) was over 100 µM and the TGI (HCC-2998 colon) was over 100 µM.
Work on `OCC12C3C4C1C1C2C3C41CO` (stereo unspecified) yielded a TGI (HOP-62 NSCLC) of over 100 µM, a TGI (NCI-H23 lung) of over 100 µM and a TGI (SN12C renal) of over 100 µM. For the same molecule, the TGI (MALME-3M melanoma) was over 100 µM, the TGI (UO-31 renal) was over 100 µM and the TGI (SK-OV-3 ovarian) was over 100 µM. It also gave a TGI (SF-295 CNS) of over 100 µM and a TGI (HCC-2998 colon) of over 100 µM.
`COc1ccc2c(c1)CC[C@@H]1[C@@H]2CC[C@]2(C)C(c3ccco3)=C(C=O)C[C@@H]12` showed a GI50 (HOP-62 NSCLC) of 20.9 µM, a TGI (HOP-62 NSCLC) of 46.2 µM and a GI50 (NCI-H23 lung) of 12.7 µM. It also gave a TGI (NCI-H23 lung) of 69.4 µM, a GI50 (SN12C renal) of 23.1 µM and a TGI (SN12C renal) of 95.2 µM. It also gave a GI50 (UO-31 renal) of 31 µM, a TGI (UO-31 renal) of over 100 µM and a GI50 (SK-OV-3 ovarian) of 28.9 µM. For the same molecule, the TGI (SK-OV-3 ovarian) was 77.7 µM, the GI50 (NCI-H522 lung) was 21.1 µM and the TGI (NCI-H522 lung) was over 100 µM. The GI50 (SF-295 CNS) was 3.4 µM, the TGI (SF-295 CNS) was 12.8 µM and the GI50 (HCC-2998 colon) was 6.78 µM. It also gave a TGI (HCC-2998 colon) of 26.3 µM.
For `CC1=C(C(=O)NCc2ccccc2)C(c2ccccc2[N+](=O)[O-])C(C(=O)NCc2ccccc2)=C(C)N1`, the TGI (HOP-62 NSCLC) was 35.1 µM, the TGI (NCI-H23 lung) was 25.4 µM and the TGI (SN12C renal) was 27.4 µM. It also gave a TGI (MALME-3M melanoma) of 27 µM, a TGI (HL-60(TB) leukemia) of 13.2 µM and a TGI (UO-31 renal) of 27 µM. It also gave a TGI (SF-295 CNS) of 25.4 µM and a TGI (HCC-2998 colon) of 31.2 µM.
Molecule `Cc1cc(O)cc2c1O[C@@]1(C)CCC3[C@@]4(C)CC[C@H](O)C(C)(C)C4CC[C@@]3(C)[C@H]1C2` (stereo partly specified) has a TGI (NCI-H23 lung) of 29.2 µM, a TGI (SN12C renal) of 25.4 µM and a TGI (MALME-3M melanoma) of 24.1 µM. For the same molecule, the TGI (HL-60(TB) leukemia) was 13.5 µM, the TGI (UO-31 renal) was 22.6 µM and the TGI (SK-OV-3 ovarian) was 12.5 µM. It also gave a TGI (NCI-H522 lung) of 21.9 µM and a TGI (SF-295 CNS) of 6.16 µM.
Work on `C=C1C(=O)O[C@H]2[C@H]1CC/C(COC(=O)NCc1c[nH]c3ccc(Cl)cc13)=C\CC[C@@]1(C)O[C@@H]21` yielded a GI50 (HOP-62 NSCLC) of 1.72 µM, a TGI (HOP-62 NSCLC) of 3.74 µM and a GI50 (NCI-H23 lung) of 1.71 µM. It also gave a TGI (NCI-H23 lung) of 3.39 µM, a GI50 (SN12C renal) of 1.37 µM and a TGI (SN12C renal) of 3 µM. It also gave a GI50 (MALME-3M melanoma) of 1.68 µM, a TGI (MALME-3M melanoma) of 3.34 µM and a GI50 (UO-31 renal) of 1.43 µM. For the same molecule, the TGI (UO-31 renal) was 2.75 µM, the GI50 (SK-OV-3 ovarian) was 5.75 µM and the TGI (SK-OV-3 ovarian) was 18.9 µM. For the same molecule, the GI50 (NCI-H522 lung) was 0.527 µM, the TGI (NCI-H522 lung) was 2.05 µM and the GI50 (SF-295 CNS) was 1.81 µM. It also gave a TGI (SF-295 CNS) of 4.09 µM, a GI50 (HCC-2998 colon) of 1.96 µM and a TGI (HCC-2998 colon) of 3.69 µM.
For `NS(=O)(=O)c1ccc(N2N=C3c4ccccc4CC3C2c2ccc(Cl)cc2)cc1` (stereo unspecified), the GI50 (HOP-62 NSCLC) was 21.1 µM, the TGI (HOP-62 NSCLC) was 47.4 µM and the GI50 (NCI-H23 lung) was 11.4 µM. It also gave a TGI (NCI-H23 lung) of 34.8 µM, a GI50 (SN12C renal) of 6.75 µM and a TGI (SN12C renal) of 25.6 µM. The GI50 (MALME-3M melanoma) was 4.23 µM, the TGI (MALME-3M melanoma) was 19.6 µM and the GI50 (UO-31 renal) was 7.88 µM. For the same molecule, the TGI (UO-31 renal) was 23.8 µM, the GI50 (SK-OV-3 ovarian) was 12.4 µM and the TGI (SK-OV-3 ovarian) was 49.4 µM. It also gave a GI50 (NCI-H522 lung) of 8.44 µM, a TGI (NCI-H522 lung) of 28.6 µM and a GI50 (SF-295 CNS) of 16.3 µM. It also gave a TGI (SF-295 CNS) of 34.2 µM, a GI50 (HCC-2998 colon) of 10.3 µM and a TGI (HCC-2998 colon) of 27.7 µM.
